Laboratory results: patent publication US4371521A, “Pharmaceutical composition for retarding excessive platelet aggregation” (priority 1973, dated 1983)
Read-outs that look alike come from different tables or passages of the source.

Experiments:
creatine-phosphokinase = conditions: various buffers and pHs, cited from earlier work
[1] = Pharmacological results of the single components; conditions: in the absence of the other component
[2] = Acute toxicity (LD50) in male albino mice; type: in vivo; conditions: mouse, in vivo, Tainter and Miller, ± standard deviation
male albino mice = experiment: Acute toxicity (LD50) in male albino mice; type: in vivo; conditions: Tainter and Miller, ± standard deviation

| Molecule | Rmax (creatine-phosphokinase) | Km (creatine-phosphokinase; read-out: Michaelis constant for ADP) | Km (creatine-phosphokinase; read-out: Michaelis constant for creatine-phosphate) | pharmacological results of the component alone [1] | LD50 [2] | LD50 (male albino mice) |
| --- | --- | --- | --- | --- | --- | --- |
| Nc1ncnc2c1ncn2[C@@H]1O[C@H](COP(=O)(O)OP(=O)(O)O)[C@@H](O)[C@H]1O [ADP, adenosine-diphosphate, reference compound] | 1.7 μmols/minute/μg of protein | 800 to 1000 µM |  |  |  |  |
| CN(CC(=O)O)C(=N)NP(=O)(O)O [CP, creatine-phosphate] | 1.1 μmols/minute/μg of protein |  | 5000 µM | Neither the substrate (CP) alone (i.e. in the absence of the administration of the enzyme which brings about its conversion) nor the enzyme (CPK) alone gives the pharmacological results | 3500 ± 120 mg/kg |  |
| CPK: enzyme found in striated and cardiac muscle and cerebral tissue; protein molecule of molecular weight 8.1×10^4; crystalline form from rabbit skeletal muscle |  |  |  | Neither the substrate (CP) alone (i.e. in the absence of the administration of the enzyme which brings about its conversion) nor the enzyme (CPK) alone gives the pharmacological results |  | > 100 mg/kg |
